Experiments:
[1] = Ratio of potentiation of AZT without serum to with serum; type: functional
Pseudomonas aeruginosa [2] = test: Minimum Potentiation Concentration of EPI required to achieve an 8-fold reduction in antibiotic MIC of AZT against MexAB-OprM pump system in Pseudomonas aeruginosa with 10% horse serum; type: functional
Pseudomonas aeruginosa [3] = test: Minimum Potentiation Concentration of EPI required to achieve an 8-fold reduction in antibiotic MIC of levofloxacin against MexABOprMover-expressing strain of Pseudomonas aeruginosa; type: functional
Pseudomonas aeruginosa [4] = test: Minimum Potentiation Concentration of EPI required to achieve an 8-fold reduction in antibiotic MIC of AZT against MexAB-OprM pump system in Pseudomonas aeruginosa without horse serum; type: functional
Albumin = Albumin (Homo sapiens, UniProt P02768); test: Protein binding affinity for human serum albumin was measured
Pseudomonas aeruginosa [5] = test: In vivo percent survival on day 7th after administration at the dose of 50 mg/kg along LVFX (7.5 mg/kg) in Pseudomonas aeruginosa PAM1723; type: functional
Mus musculus [6] = test: In vivo number of survivors on day 1after administration at the dose of 50 mg/kg along LVFX (7.5 mg/kg) in mice (Pseudomonas aeruginosa PAM1723); type: functional
Mus musculus [7] = test: In vivo number of survivors on day 4 after administration at the dose of 50 mg/kg along LVFX (7.5 mg/kg) in mice (Pseudomonas aeruginosa PAM1723); type: functional
Mus musculus [8] = test: In vivo number of survivors on day 0 after administration at the dose of 50 mg/kg along LVFX (7.5 mg/kg) in mice (Pseudomonas aeruginosa PAM1723); type: functional
Pseudomonas aeruginosa [9] = test: In vivo percent survival on day 7th after administration at the dose of 50 mg/kg along LVFX (15 mg/kg) in Pseudomonas aeruginosa PAM1723; type: functional
Mus musculus [10] = test: In vivo number of survivors on day 0 after administration at the dose of 50 mg/kg along LVFX (15 mg/kg) in mice (Pseudomonas aeruginosa PAM1723); type: functional
Mus musculus [11] = test: In vivo number of survivors on day 7 after administration at the dose of 50 mg/kg along LVFX (7.5 mg/kg) in mice (Pseudomonas aeruginosa PAM1723); type: functional
Pseudomonas aeruginosa [12] = test: Minimum concentration ([…]) of inhibitor required to reduce (potentiate) the activity of antibacterial drug-LVFX for Pseudomonas aeruginosa PAM1723 by n-fold; type: functional
Mus musculus [13] = test: In vivo number of survivors on day 4 after administration (30 mg/kg) in mice(Pseudomonas aeruginosa PAM1723); type: functional
Mus musculus [14] = test: In vivo number of survivors on day 1 after administration (7.5 mg/kg) in mice(Pseudomonas aeruginosa PAM1723); type: functional
Mus musculus [15] = test: In vivo number of survivors on day 7 after administration (7.5 mg/kg) in mice(Pseudomonas aeruginosa PAM1723); type: functional
Mus musculus [16] = test: In vivo percent survival on day 7th after administration (30 mg/kg) in mice(Pseudomonas aeruginosa PAM1723); type: functional
Mus musculus [17] = test: In vivo number of survivors on day 7 after administration (30 mg/kg) in mice(Pseudomonas aeruginosa PAM1723); type: functional
Mus musculus [18] = test: In vivo number of survivors on day 4 after administration (15 mg/kg) in mice Pseudomonas aeruginosa PAM1723); type: functional
Mus musculus [19] = test: In vivo percent survival on day 7th after administration (15 mg/kg) in mice(Pseudomonas aeruginosa PAM1723); type: functional
Mus musculus [20] = test: In vivo number of survivors on day 0 after administration (7.5 mg/kg) in mice(Pseudomonas aeruginosa PAM1723); type: functional
Mus musculus [21] = test: In vivo number of survivors on day 0 after administration (15 mg/kg) in mice(Pseudomonas aeruginosa PAM1723); type: functional
Mus musculus [22] = test: In vivo percent survival on day 7th after administration (7.5 mg/kg) in mice(Pseudomonas aeruginosa PAM1723); type: functional
Mus musculus [23] = test: In vivo number of survivors on day 1 after administration (30 mg/kg) in mice(Pseudomonas aeruginosa PAM1723); type: functional
Mus musculus [24] = test: In vivo number of survivors on day 0 after administration (30 mg/kg) in mice(Pseudomonas aeruginosa PAM1723); type: functional
Mus musculus [25] = test: In vivo number of survivors on day 7 after administration (15 mg/kg) in mice(Pseudomonas aeruginosa PAM1723); type: functional
Mus musculus [26] = test: In vivo number of survivors on day 1 after administration (15 mg/kg) in mice(Pseudomonas aeruginosa PAM1723); type: functional
Mus musculus [27] = test: In vivo number of survivors on day 4 after administration (7.5 mg/kg) in mice(Pseudomonas aeruginosa PAM1723); type: functional
Mus musculus [28] = test: In vivo number of survivors on day 1after administration at the dose of 50 mg/kg along LVFX (15 mg/kg) in mice (Pseudomonas aeruginosa PAM1723); type: functional
Mus musculus [29] = test: In vivo number of survivors on day 7 after administration at the dose of 50 mg/kg along LVFX (15 mg/kg) in mice (Pseudomonas aeruginosa PAM1723); type: functional
Mus musculus [30] = test: In vivo number of survivors on day 4 after administration at the dose of 50 mg/kg along LVFX (15 mg/kg) in mice (Pseudomonas aeruginosa PAM1723); type: functional
Mus musculus [31] = test: In vivo number of survivors on day 7 after administration at the dose of 50 mg/kg along LVFX(7.5 mg/kg) in mice (Pseudomonas aeruginosa PAM1723); type: functional
Mus musculus [32] = test: In vivo number of survivors on day 0 after administration at the dose of 50 mg/kg along LVFX (7.5 mg/kg) along with in mice (Pseudomonas aeruginosa PAM1723); type: functional

Chain of Albumin (P02768 whole entry): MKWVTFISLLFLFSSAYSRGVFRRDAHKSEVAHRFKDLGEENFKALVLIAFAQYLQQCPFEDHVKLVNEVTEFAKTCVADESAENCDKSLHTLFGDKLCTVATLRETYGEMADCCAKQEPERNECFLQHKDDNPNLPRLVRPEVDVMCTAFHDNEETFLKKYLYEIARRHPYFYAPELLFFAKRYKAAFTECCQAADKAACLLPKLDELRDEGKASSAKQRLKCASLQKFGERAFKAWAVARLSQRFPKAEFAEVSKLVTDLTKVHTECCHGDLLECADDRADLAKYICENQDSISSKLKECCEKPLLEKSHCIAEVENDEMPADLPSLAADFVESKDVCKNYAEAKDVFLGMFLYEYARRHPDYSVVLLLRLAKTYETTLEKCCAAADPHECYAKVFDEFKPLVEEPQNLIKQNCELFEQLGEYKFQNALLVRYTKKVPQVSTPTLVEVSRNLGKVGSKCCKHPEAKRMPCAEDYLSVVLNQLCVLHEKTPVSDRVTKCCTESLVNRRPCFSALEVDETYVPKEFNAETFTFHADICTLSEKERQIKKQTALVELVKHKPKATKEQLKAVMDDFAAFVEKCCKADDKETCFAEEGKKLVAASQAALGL

Row | Compound | Ratio [1] | MPC8 (Pseudomonas aeruginosa [2]) [µg/mL] | MPC8 (Pseudomonas aeruginosa [3]) [µg/mL] | MPC8 (Pseudomonas aeruginosa [4]) | Binding (Albumin) [%] | Kd (Albumin) [µM] | further results
1 | CCn1cc(C(=O)O)c(=O)c2ccc(/C=C/c3nc(C(C)C)cs3)cc21 | 1 | 10 | >160 | 10 µg/mL | – | – | –
2 | CC(C)c1csc(CCc2ccn3c(=O)c(C(=O)O)cnc3c2)n1 | – | >40 | – | >40 µg/mL | – | – | –
3 | CC(C)c1csc(/C=C/c2cccc(NC(=O)Cc3ccccc3C(=O)O)c2)n1 | > 16 | 10 | >60 | <=0.63 ug ml-1 | > 99.9 | 0.28 | –
4 | CC(C)c1csc(COc2ccn3c(=O)c(-c4nnn[nH]4)cnc3c2)n1 | 1 | 5 | 10 | 5 µg/mL | 88.4 | 66.4 | survival at 50 mg/kg (Pseudomonas aeruginosa [5]): 40%; No. of survivors (Mus musculus [6]): 4; No. of survivors (Mus musculus [7]): 4; No. of survivors (Mus musculus [8]): 10; survival at 50 mg/kg (Pseudomonas aeruginosa [9]): 100%; No. of survivors (Mus musculus [10]): 10; No. of survivors (Mus musculus [11]): 4
5 | CCn1cc(-c2nnn[nH]2)c(=O)c2ccc(/C=C/c3nc(C(C)C)cs3)cc21 | 4 | 20 | 1.25 | 5 µg/mL | – | – | –
6 | CC(C)c1csc(CCc2ccn3c(=O)c(-c4nnn[nH]4)cnc3c2)n1 | 1 | 10 | – | 10 µg/mL | 81.5 | 327 | MPC8 (Pseudomonas aeruginosa [12]): >80 µg/mL
7 | C[C@H]1COc2c(N3CCN(C)CC3)c(F)cc3c(=O)c(C(=O)O)cn1c23.C[C@H]1COc2c(N3CCN(C)CC3)c(F)cc3c(=O)c(C(=O)O)cn1c23.O [LEVOFLOXACIN] | – | – | – | – | – | – | No. of survivors (Mus musculus [13]): 7; No. of survivors (Mus musculus [14]): 0; No. of survivors (Mus musculus [15]): 0; Survival (Mus musculus [16]): 70%; No. of survivors (Mus musculus [17]): 7; No. of survivors (Mus musculus [18]): 1; Survival (Mus musculus [19]): 10%; No. of survivors (Mus musculus [20]): 10; No. of survivors (Mus musculus [21]): 10; Survival (Mus musculus [22]): 0%; No. of survivors (Mus musculus [23]): 9; No. of survivors (Mus musculus [24]): 10; No. of survivors (Mus musculus [25]): 1; No. of survivors (Mus musculus [26]): 1; No. of survivors (Mus musculus [27]): 0
8 | CC(C)c1csc(/C=C/c2ccn3c(=O)c(-c4nnn[nH]4)cnc3c2)n1 | 1 | 2.5 | 1.25 | 2.5 µg/mL | 90.8 | 22 | survival at 50 mg/kg (Pseudomonas aeruginosa [5]): 10%; No. of survivors (Mus musculus [28]): 10; No. of survivors (Mus musculus [29]): 7; No. of survivors (Mus musculus [6]): 1; No. of survivors (Mus musculus [7]): 1; No. of survivors (Mus musculus [30]): 7; survival at 50 mg/kg (Pseudomonas aeruginosa [9]): 70%; No. of survivors (Mus musculus [10]): 10; No. of survivors (Mus musculus [31]): 1; No. of survivors (Mus musculus [32]): 10
9 | CC(C)c1csc(COc2ccn3c(=O)c(C(=O)O)cnc3c2)n1 | 2 | 80 | 320 | 40 µg/mL | – | – | –
10 | CC(C)c1csc(/C=C/c2ccn3c(=O)c(C(=O)O)cnc3c2)n1 | 0.5 | 40 | >320 | 80 µg/mL | – | – | –
11 | CC(C)c1csc(COc2cc3c(cc2F)c(=O)c(C(=O)O)cn3C2CC2)n1 | 1 | 10 | 320 | 10 µg/mL | 90.5 | – | –

Reference: ChEMBL document CHEMBL1136458, “MexAB-OprM specific efflux pump inhibitors in Pseudomonas aeruginosa. Part 2: achieving activity in vivo through the use of alternative scaffolds” (Bioorg Med Chem Lett, 2003)
